In PMC4457528, “Identification of Novel Small Molecule Inhibitors of Oncogenic RET Kinase” (PLoS ONE, 2015):
Like-named read-outs stand apart in the source and are kept apart here.

Legend:
Assay in all cases: KinomeScan kinase panel, single concentration 10 µM
Format in all cases: binding
KinomeScan kinase panel [1] = target: T1, KinomeScan kinase panel (Homo sapiens, UniProt Q16620); conditions: 10 µM, read-out: score (%)
T1 construct: purchased DiscoveRx (KinomeScan)

KinomeScan kinase panel [2] = target: T2, KinomeScan kinase panel (Homo sapiens, UniProt P21127); conditions: CDC2L1, 10 µM; read-out: score (%)
T2 construct: purchased DiscoveRx (KinomeScan)

KinomeScan kinase panel [3] = target: T3, KinomeScan kinase panel (Homo sapiens, UniProt Q9NRM7); conditions: LATS2, 10 µM
T3 construct: purchased DiscoveRx (KinomeScan)
T3 sequence (Q9NRM7 1-1088): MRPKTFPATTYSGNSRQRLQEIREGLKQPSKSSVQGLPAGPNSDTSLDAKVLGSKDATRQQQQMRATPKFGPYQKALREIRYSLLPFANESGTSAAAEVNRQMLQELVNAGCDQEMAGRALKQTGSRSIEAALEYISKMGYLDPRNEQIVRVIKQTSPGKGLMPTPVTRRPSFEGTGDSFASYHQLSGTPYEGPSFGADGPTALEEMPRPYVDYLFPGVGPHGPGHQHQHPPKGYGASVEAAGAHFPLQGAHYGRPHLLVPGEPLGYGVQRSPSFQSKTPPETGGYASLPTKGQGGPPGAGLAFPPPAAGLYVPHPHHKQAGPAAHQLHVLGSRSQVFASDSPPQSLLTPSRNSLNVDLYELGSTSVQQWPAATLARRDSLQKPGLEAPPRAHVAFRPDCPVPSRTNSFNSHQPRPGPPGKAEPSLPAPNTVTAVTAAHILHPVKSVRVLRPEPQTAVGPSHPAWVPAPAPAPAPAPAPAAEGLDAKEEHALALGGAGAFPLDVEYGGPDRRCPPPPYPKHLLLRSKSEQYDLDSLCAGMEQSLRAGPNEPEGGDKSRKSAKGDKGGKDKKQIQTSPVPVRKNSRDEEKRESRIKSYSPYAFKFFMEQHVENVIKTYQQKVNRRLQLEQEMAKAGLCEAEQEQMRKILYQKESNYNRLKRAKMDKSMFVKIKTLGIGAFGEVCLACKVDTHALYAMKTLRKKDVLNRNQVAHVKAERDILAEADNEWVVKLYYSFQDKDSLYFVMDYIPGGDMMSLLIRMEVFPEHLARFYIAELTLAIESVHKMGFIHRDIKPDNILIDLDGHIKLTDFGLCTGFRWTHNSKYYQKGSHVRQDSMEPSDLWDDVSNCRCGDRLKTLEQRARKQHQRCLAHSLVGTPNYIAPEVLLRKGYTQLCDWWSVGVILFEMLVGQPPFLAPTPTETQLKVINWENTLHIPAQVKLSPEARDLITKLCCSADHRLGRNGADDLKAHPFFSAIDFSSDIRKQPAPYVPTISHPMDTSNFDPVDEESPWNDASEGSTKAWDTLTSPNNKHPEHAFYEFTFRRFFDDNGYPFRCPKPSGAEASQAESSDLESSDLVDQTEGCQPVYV

KinomeScan kinase panel [4] = target: T4, KinomeScan kinase panel (Homo sapiens, UniProt Q15569); conditions: read-out: score (%)
T4 construct: purchased DiscoveRx (KinomeScan)

KinomeScan kinase panel [5] = target: T5, KinomeScan kinase panel (Homo sapiens, UniProt Q8IU85); conditions: CAMK1D, 10 µM; read-out: score (%)
T5 construct: purchased DiscoveRx (KinomeScan)

KinomeScan kinase panel [6] = target: T6, KinomeScan kinase panel (Homo sapiens, UniProt P53671); conditions: LIMK2, 10 µM; read-out: score (%)
T6 construct: purchased DiscoveRx (KinomeScan)

KinomeScan kinase panel [7] = target: T7, KinomeScan kinase panel (Homo sapiens, UniProt P00533); conditions: EGFR, 10 µM
T7 construct: purchased DiscoveRx (KinomeScan)

KinomeScan kinase panel [8] = target: T8, KinomeScan kinase panel (Homo sapiens, UniProt P54753); conditions: EPHB3, 10 µM; read-out: score (%)
T8 construct: purchased DiscoveRx (KinomeScan)
T8 sequence (P54753 34-998): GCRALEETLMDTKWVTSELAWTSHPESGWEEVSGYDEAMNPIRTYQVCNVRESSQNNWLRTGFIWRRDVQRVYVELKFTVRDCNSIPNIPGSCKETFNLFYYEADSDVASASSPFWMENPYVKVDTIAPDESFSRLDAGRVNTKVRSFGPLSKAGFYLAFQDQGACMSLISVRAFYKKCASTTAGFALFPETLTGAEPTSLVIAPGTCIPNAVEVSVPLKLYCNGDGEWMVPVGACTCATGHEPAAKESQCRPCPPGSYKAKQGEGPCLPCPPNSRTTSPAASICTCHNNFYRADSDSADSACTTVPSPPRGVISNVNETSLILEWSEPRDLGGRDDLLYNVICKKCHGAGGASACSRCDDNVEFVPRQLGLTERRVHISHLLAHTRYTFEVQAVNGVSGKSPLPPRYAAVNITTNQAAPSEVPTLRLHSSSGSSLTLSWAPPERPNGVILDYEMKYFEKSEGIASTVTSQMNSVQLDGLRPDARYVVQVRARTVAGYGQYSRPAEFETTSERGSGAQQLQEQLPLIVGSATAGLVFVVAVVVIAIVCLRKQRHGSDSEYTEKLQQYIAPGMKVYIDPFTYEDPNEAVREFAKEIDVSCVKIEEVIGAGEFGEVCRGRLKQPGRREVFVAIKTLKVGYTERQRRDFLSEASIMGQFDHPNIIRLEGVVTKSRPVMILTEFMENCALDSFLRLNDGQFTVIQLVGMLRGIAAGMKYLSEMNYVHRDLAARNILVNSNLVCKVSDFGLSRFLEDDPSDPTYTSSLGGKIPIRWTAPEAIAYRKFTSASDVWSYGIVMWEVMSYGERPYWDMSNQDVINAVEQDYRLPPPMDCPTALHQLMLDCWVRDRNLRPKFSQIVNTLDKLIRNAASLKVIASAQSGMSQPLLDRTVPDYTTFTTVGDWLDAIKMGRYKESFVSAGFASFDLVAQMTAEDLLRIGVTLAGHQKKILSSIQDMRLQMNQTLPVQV

T5 sequence (Q8IU85 whole entry): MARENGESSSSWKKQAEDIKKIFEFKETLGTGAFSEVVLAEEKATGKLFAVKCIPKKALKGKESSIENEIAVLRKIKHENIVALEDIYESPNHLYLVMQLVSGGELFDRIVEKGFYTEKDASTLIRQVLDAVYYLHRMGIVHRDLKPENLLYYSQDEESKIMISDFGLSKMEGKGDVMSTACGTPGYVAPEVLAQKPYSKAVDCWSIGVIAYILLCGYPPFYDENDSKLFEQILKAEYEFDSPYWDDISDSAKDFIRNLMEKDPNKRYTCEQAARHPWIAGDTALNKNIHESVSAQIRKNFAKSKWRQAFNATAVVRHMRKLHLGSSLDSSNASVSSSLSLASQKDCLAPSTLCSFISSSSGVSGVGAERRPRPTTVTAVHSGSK
T4 sequence (Q15569 whole entry): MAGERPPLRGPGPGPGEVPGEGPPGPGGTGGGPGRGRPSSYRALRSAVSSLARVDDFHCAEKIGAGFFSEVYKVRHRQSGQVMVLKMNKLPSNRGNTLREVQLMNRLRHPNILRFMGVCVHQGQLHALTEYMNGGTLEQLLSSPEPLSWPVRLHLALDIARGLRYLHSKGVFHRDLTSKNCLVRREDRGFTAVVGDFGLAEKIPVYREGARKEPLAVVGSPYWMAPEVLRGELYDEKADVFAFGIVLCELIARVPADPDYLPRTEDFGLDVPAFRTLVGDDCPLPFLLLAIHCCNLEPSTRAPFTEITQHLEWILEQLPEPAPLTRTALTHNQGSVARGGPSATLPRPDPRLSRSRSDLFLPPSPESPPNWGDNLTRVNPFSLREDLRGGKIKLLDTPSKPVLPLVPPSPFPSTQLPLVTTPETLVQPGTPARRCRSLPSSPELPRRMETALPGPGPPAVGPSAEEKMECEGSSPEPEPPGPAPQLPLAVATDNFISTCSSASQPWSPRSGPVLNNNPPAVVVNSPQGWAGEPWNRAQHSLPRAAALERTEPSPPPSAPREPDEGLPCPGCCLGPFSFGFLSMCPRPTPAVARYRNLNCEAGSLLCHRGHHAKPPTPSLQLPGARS
T7 sequence (P00533 25-1210): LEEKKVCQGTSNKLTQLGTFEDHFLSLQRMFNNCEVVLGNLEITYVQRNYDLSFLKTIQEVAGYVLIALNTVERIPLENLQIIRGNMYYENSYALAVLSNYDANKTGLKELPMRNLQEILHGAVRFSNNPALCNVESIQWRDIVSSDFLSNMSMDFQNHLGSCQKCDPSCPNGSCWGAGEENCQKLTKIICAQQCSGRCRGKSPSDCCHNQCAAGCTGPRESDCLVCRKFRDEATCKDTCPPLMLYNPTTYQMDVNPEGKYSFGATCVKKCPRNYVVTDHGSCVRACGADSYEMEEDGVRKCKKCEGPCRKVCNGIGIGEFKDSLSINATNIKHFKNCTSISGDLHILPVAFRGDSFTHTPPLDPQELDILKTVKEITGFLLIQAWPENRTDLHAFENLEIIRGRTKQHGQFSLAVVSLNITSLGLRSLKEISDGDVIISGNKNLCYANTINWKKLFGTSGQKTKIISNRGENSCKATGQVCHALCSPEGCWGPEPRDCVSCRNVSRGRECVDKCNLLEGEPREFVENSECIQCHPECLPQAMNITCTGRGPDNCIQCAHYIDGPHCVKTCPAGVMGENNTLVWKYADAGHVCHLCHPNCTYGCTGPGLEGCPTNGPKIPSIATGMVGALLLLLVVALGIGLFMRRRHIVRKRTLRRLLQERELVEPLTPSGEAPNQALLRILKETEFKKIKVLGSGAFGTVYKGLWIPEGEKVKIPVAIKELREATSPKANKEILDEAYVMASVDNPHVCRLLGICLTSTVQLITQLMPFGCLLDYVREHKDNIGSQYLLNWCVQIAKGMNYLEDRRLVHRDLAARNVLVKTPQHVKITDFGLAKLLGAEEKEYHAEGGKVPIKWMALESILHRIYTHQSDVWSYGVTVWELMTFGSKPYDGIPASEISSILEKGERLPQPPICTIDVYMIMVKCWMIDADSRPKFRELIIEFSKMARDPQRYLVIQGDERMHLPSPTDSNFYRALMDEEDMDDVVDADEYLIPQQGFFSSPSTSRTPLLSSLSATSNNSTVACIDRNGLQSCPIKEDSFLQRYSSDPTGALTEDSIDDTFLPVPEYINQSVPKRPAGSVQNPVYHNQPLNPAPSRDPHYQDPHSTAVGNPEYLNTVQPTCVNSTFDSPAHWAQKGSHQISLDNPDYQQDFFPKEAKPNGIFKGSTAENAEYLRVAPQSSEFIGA
T6 sequence (P53671 whole entry): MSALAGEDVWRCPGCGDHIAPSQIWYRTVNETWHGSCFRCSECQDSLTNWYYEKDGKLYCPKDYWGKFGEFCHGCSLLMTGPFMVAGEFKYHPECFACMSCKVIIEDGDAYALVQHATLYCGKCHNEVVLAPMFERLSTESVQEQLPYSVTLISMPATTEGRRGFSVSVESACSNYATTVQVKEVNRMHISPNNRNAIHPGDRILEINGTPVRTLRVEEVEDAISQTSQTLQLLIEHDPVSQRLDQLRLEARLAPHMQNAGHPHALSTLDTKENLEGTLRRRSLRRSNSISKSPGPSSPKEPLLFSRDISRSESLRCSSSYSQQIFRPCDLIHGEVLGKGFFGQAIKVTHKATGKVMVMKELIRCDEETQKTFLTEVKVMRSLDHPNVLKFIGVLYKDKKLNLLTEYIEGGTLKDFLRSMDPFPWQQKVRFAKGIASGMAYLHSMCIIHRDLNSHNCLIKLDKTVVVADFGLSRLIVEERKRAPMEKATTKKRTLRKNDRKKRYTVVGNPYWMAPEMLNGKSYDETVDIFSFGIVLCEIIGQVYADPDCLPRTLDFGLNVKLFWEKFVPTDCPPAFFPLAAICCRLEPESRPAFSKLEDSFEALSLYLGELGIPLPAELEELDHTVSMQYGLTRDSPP
T1 sequence (Q16620 32-822): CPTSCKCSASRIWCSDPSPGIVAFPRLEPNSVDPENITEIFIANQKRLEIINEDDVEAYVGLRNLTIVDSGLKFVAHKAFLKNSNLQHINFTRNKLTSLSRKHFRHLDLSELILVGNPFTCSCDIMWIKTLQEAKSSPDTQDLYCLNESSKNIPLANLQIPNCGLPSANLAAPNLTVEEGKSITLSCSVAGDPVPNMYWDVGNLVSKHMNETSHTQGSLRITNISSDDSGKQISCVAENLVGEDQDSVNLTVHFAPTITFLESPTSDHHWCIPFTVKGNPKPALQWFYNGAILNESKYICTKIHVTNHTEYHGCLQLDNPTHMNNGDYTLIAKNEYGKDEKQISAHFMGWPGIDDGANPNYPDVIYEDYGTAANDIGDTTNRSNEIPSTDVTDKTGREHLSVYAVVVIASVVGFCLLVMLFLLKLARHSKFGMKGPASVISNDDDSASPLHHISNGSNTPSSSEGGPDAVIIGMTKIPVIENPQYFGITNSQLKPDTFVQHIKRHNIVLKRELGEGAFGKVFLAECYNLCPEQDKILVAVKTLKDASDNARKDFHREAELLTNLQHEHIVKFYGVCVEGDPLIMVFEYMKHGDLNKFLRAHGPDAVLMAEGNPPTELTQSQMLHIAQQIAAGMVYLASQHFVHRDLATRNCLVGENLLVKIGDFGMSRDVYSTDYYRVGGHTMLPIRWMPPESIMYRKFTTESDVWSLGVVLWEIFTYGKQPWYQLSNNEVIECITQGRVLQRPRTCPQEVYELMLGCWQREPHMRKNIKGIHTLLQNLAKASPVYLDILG
T2 sequence (P21127 whole entry): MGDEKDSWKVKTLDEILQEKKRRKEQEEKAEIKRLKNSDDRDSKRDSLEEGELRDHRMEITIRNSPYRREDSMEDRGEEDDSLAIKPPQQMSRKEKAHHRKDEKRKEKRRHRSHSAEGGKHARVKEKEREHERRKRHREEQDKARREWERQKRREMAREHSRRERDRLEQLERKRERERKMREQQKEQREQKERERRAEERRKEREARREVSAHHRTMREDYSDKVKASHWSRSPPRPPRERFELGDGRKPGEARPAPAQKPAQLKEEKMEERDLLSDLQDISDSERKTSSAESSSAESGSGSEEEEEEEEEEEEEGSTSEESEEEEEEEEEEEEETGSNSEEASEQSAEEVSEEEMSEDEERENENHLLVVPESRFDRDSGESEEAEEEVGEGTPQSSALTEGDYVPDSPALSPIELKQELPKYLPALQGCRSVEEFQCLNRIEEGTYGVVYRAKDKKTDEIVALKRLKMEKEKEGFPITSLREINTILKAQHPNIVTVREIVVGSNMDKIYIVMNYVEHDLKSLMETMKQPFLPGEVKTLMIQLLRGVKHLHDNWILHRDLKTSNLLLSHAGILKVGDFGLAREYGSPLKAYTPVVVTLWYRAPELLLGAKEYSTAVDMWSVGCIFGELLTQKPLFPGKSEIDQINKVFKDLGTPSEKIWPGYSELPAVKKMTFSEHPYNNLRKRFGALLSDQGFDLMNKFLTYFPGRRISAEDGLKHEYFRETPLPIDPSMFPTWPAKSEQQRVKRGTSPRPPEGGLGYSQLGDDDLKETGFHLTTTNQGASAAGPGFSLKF

CCN1CCN(Cc2ccc(NC(=O)c3ccc(C)c(NC(=O)c4cncc(-c5cccs5)c4)c3)cc2C(F)(F)F)CC1 [ALW-II-41-27]
remaining binding at 10 µM (KinomeScan kinase panel [1]; kinase TRKB): 4%
remaining binding at 10 µM (KinomeScan kinase panel [2]): 1.5%
score (%) (KinomeScan kinase panel [3]): nb (Hits values higher than 30% were considered negative (no binding: nb))
remaining binding at 10 µM (KinomeScan kinase panel [4]; kinase TESK1, 10 µM): > 30%
remaining binding at 10 µM (KinomeScan kinase panel [5]): > 30%
remaining binding at 10 µM (KinomeScan kinase panel [6]): 31%
score (%) (KinomeScan kinase panel [7]): 1.3%
remaining binding at 10 µM (KinomeScan kinase panel [8]): 0.3%

CCN1CCN(Cc2ccc(NC(=O)c3ccc(C)c(/C=C/c4cnc5[nH]ccc5c4Cl)c3)cc2C(F)(F)F)CC1 [HG-6-63-01, (E)-3-(2-(4-chloro-1H-pyrrolo[2,3-b]pyridin-5-yl)vinyl)-N-(4-((4-ethylpiperazin-1-yl)methyl)-3-(trifluoromethyl)phenyl)-4-methylbenzamide]
remaining binding at 10 µM (KinomeScan kinase panel [1]; TRKB): 1.6%
remaining binding at 10 µM (KinomeScan kinase panel [2]): 13%
score (%) (KinomeScan kinase panel [3]): nb (Hits values higher than 30% were considered negative (no binding: nb))
remaining binding at 10 µM (KinomeScan kinase panel [4]; TESK1, 10 µM): 4.2%
remaining binding at 10 µM (KinomeScan kinase panel [5]): > 30%
remaining binding at 10 µM (KinomeScan kinase panel [6]): 6.6%
score (%) (KinomeScan kinase panel [7]): 0.3%
remaining binding at 10 µM (KinomeScan kinase panel [8]): 11%

CCN1CCN(Cc2ccc(NC(=O)c3ccc(C)c(C#Cc4cccnc4)c3)cc2C(F)(F)F)CC1 [XMD15-44]
remaining binding at 10 µM (KinomeScan kinase panel [1]; kinase TRKB): 1.6%
remaining binding at 10 µM (KinomeScan kinase panel [2]): 2.5%
score (%) (KinomeScan kinase panel [3]): 7.6%
remaining binding at 10 µM (KinomeScan kinase panel [4]; kinase TESK1, 10 µM): 60%
remaining binding at 10 µM (KinomeScan kinase panel [5]): > 30%
remaining binding at 10 µM (KinomeScan kinase panel [6]): 11%
score (%) (KinomeScan kinase panel [7]): 3%
remaining binding at 10 µM (KinomeScan kinase panel [8]): 0.25%
